Experimental data published in US20250179047A1, “5-[7-(3,4-DIHYDRO-1H-ISOQUINOLINE-2-CARBONYL)-1,2,3,4 TETRAHYDROISOQUINOLIN-6-YL]-1H-PYRROLE-3-CARBOXAMIDE DERIVATIVES, PHARMACEUTICAL COMPOSITIONS CONTAINING THEM AND THEIR USES AS PRO-APOPTOTIC AGENTS” (LES LABORATOIRES SERVIER, priority 2022, published 2025).

Legend:
BCL2 G101V [1] = target: BCL2 G101V (Homo sapiens, UniProt P10415, G101V); experiment: TR-FRET competitive binding assay, BCL2 G101V; details: BCL2 G101V; Ki determined from IC50; read-out: TR_FRET EKI_Bcl2 G101V
How it was run: (§1)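 Terbium-labelled N-terminal Halo-fusion BCL2 or BCLXL (E. coli), 0.5 nM, competed against fluorescein-labelled PUMA peptide (2 or 20 nM) for 2 h at 23° C in 50 mM Hepes pH 7.5, 150 mM NaCl, 5% DMSO. TR-FRET 520/495 nm ratio gave IC50 by four-parameter fit; Ki derived from IC50.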

BCL2 G101V [2] = experiment: TR-FRET competitive binding assay, BCL2 G101V; parameters: species or system human; details: ratio Ki BCL2 G101V / Ki BCL2 WT
How it was run: as §1

BCL2 WT = BCL2 WT (Homo sapiens (Human), UniProt P10415); experiment: TR-FRET competitive binding assay, BCL2 WT; details: Ki determined from IC50, read-out: TR_FRET EKI_Bcl2 WT
How it was run: as §1

KMS-12-PE Bcl-2 G101V = experiment: In vitro cytotoxicity CellTiter-Glo 48 h, KMS-12-PE Bcl-2 G101V; type: cell-based; details: for Ratio (G101V/WT): C50 KMS-12-PE Bcl-2 G101V over C50 KMS-12-PE Bcl-2 WT; for IC50: Homo sapiens, KMS-12-PE, 48 h, CellTiter-Glo, C50 = concentration needed to reach 50% of the cellular viability
How it was run: (§2)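 Viability measured by CellTiter-Glo luminescence after 48 h compound exposure (11-point curve, 37 °C, 5% CO2). Cells: KMS-12-PE transduced with wild-type or G101V-mutant Bcl-2, FACS-sorted for TagRFP. Reported C50 = concentration reaching 50% cellular viability.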

KMS-12-PE Bcl-2 WT = experiment: In vitro cytotoxicity CellTiter-Glo 48 h, KMS-12-PE Bcl-2 WT; type: cell-based; details: Homo sapiens, KMS-12-PE, C50 = concentration needed to reach 50% of the cellular viability
How it was run: as §2

BCL2 D103Y = BCL2 D103Y (Homo sapiens, UniProt P10415, D103Y); experiment: TR-FRET competitive binding assay, BCL2 D103Y; details: Ki determined from IC50, read-out: TR_FRET EKI_Bcl2 D103Y
How it was run: as §1

BCLXL WT = BCLXL WT (Homo sapiens (Human), UniProt Q07817); experiment: TR-FRET competitive binding assay, BCLXL WT; details: for Ki: BCLXL WT, Ki determined from IC50, read-out: TR_FRET EKI BclxL; for TR_FRET EKI BCLxL/WT selectivty ratio: ratio Ki BCLxL / Ki BCL2 WT
How it was run: as §1

Chain of BCLXL WT (Q07817 other isoform, or with tags, fused parts or gaps): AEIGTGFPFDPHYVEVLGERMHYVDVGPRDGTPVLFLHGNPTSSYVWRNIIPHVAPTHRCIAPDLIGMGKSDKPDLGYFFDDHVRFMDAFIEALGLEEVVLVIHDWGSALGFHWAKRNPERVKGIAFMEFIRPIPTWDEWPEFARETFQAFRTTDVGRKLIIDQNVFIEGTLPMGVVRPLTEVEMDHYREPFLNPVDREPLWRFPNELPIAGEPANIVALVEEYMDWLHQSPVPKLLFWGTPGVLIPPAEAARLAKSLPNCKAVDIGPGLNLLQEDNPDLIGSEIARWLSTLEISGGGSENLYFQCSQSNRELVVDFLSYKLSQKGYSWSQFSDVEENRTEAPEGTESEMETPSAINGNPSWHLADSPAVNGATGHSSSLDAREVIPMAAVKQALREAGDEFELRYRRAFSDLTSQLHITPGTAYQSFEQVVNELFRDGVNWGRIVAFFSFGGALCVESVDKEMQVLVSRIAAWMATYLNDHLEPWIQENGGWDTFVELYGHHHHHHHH

Row | SMILES | Ki (BCL2 G101V [1]) [nM] | TR_FRET EKI G101V/WT selectivty ratio (BCL2 G101V [2]) | Ki (BCL2 WT) [nM] | Ratio (G101V/WT) (KMS-12-PE Bcl-2 G101V) | IC50 (KMS-12-PE Bcl-2 G101V) [µM] | IC50 (KMS-12-PE Bcl-2 WT) [µM] | Ki (BCL2 D103Y) [nM] | Ki (BCLXL WT) [nM] | TR_FRET EKI BCLxL/WT selectivty ratio (BCLXL WT)
1 | Cc1c(N(C(=O)c2cc(-c3cc4c(cc3C(=O)N3Cc5ccccc5C[C@H]3CN3CCCCC3)CN(C(=O)Cc3ccc(CCN5CCC(F)(F)CC5)cc3)CC4)n(C)c2C)c2ccc(O)cc2)cc(C#N)n1C [Example 131, N-(5-cyano-1,2-dimethylpyrrol-3-yl)-5-[2-(2-{4-[2-(4,4-difluoropiperidin-1-yl)ethyl]phenyl}acetyl)-7-{[(3S)-3-(piperidin-1-ylmethyl)-3,4-dihydro-1H-isoquinolin-2-yl]carbonyl}-3,4-dihydro-1H-isoquinolin-6-yl]-N-(4-hydroxyphenyl)-1,2-dimethylpyrrole-3-carboxamide] | 1.5 | 6.5 | 0.23 | 6.759 | 0.244 | 0.0361 | 0.53 | 8.7 | 37.8
2 | Cc1c(N(C(=O)c2cc(-c3cc4c(cc3C(=O)N3Cc5ccccc5C[C@H]3CN3CCCCC3)CN(C(=O)Cc3ccc(OC(C)(C)CN5CCOCC5)cc3)CC4)n(C)c2C)c2ccc(O)cc2)cc(C#N)n1C [Example 132, N-(5-cyano-1,2-dimethyl-1H-pyrrol-3-yl)-N-(4-hydroxyphenyl)-1,2-dimethyl-5-{2-[2-(4-{[2-methyl-1-(morpholin-4-yl)propan-2-yl]oxy}phenyl)acetyl]-7-[(3S)-3-[(piperidin-1-yl)methyl]-1,2,3,4-tetrahydroisoquinoline-2-carbonyl]-1,2,3,4-tetrahydroisoquinolin-6-yl}-1H-pyrrole-3-carboxamide] | 2.9 | 20.4 | 0.14 | 7.2727 | 0.48 | 0.066 | 0.37 | 12 | 85.7
3 | Cc1c(N(C(=O)c2cc(-c3cc4c(cc3C(=O)N3Cc5ccccc5C[C@H]3CN3CCCCC3)CN(C(=O)COc3ccccc3)CC4)n(C)c2C)c2ccc(O)cc2)cc(C#N)n1C [Example 133, N-(5-cyano-1,2-dimethyl-1H-pyrrol-3-yl)-N-(4-hydroxyphenyl)-1,2-dimethyl-5-[2-(2-phenoxyacetyl)-7-[(3S)-3-[(piperidin-1-yl)methyl]-1,2,3,4-tetrahydroisoquinoline-2-carbonyl]-1,2,3,4-tetrahydroisoquinolin-6-yl]-1H-pyrrole-3-carboxamide] | 0.6 | 9.4 | 0.07 | 5.59 | 0.0556 | 0.01 | 0.38 | 1.9 | 29.2
4 | CCN(CC)C[C@@H]1Cc2ccccc2CN1C(=O)c1cc2c(cc1-c1cc(C(=O)N(c3ccc(O)cc3)c3cc(C#N)n(C)c3C)c(C)n1C)CCN(C(=O)Cc1ccc(OCCN3CCOCC3)cc1F)C2 [Example 137, N-(5-cyano-1,2-dimethyl-1H-pyrrol-3-yl)-5-{7-[(3S)-3-[(diethylamino)methyl]-1,2,3,4-tetrahydroisoquinoline-2-carbonyl]-2-(2-{2-fluoro-4-[2-(morpholin-4-yl)ethoxy]phenyl}acetyl)-1,2,3,4-tetrahydroisoquinolin-6-yl}-N-(4-hydroxyphenyl)-1,2-dimethyl-1H-pyrrole-3-carboxamide] | 0.3 | 4.6 | 0.06 | 3.2905 | 0.0487 | 0.0148 | 0.16 | 1.4 | 23.7
5 | Cc1c(N(C(=O)c2cc(-c3cc4c(cc3C(=O)N3Cc5ccccc5C[C@H]3CN(C)C(C)C)CN(C(=O)Cc3ccc(OCCN(C)C5CC5)cc3)CC4)n(C)c2C)c2ccc(O)cc2)cc(C#N)n1C [Example 138, N-(5-cyano-1,2-dimethyl-pyrrol-3-yl)-5-[2-[2-[4-[2-[cyclopropyl(methyl)amino]ethoxy]phenyl]acetyl]-7-[(3S)-3-[[isopropyl(methyl)amino]methyl]-3,4-dihydro-1H-isoquinoline-2-carbonyl]-3,4-dihydro-1H-isoquinolin-6-yl]-N-(4-hydroxyphenyl)-1,2-dimethyl-pyrrole-3-carboxamide] | 0.5 | 6.2 | 0.08 | 5.4167 | 0.195 | 0.036 | 0.24 | 2.2 | 27.2
6 | Cc1c(N(C(=O)c2cc(-c3cc4c(cc3C(=O)N3Cc5ccccc5C[C@H]3CN3CCC[C@H](C)C3)CN(C(=O)Cc3ccc(OCCN(C)C5CC5)cc3)CC4)n(C)c2C)c2ccc(O)cc2)cc(C#N)n1C [Example 139, N-(5-cyano-1,2-dimethyl-pyrrol-3-yl)-5-[2-[2-[4-[2-[cyclopropyl(methyl)amino]ethoxy]phenyl]acetyl]-7-[(3S)-3-[[(3S)-3-methyl-1-piperidyl]methyl]-3,4-dihydro-1H-isoquinoline-2-carbonyl]-3,4-dihydro-1H-isoquinolin-6-yl]-N-(4-hydroxyphenyl)-1,2-dimethyl-pyrrole-3-carboxamide] | 1 | 8.3 | 0.12 | 5.4762 | 0.115 | 0.021 | 0.51 | 5.7 | 47.5
7 | Cc1c(N(C(=O)c2cc(-c3cc4c(cc3C(=O)N3Cc5ccccc5C[C@H]3CN3CCC(C)CC3)CN(C(=O)Cc3ccc(OCCN5CCOCC5)cc3F)CC4)n(C)c2C)c2ccc(O)cc2)cc(C#N)n1C [Example 140] | 0.4 | 5.1 | 0.08 | 6.2044 | 0.034 | 0.0055 | 0.17 | 2.8 | 35.9
8 | Cc1c(N(C(=O)c2cc(-c3cc4c(cc3C(=O)N3Cc5ccccc5C[C@H]3C)CN(C(=O)Cc3ccc(OCCN5CCOCC5)cc3)CC4)n(C)c2C)c2ccc(O)cc2)cnn1C1CCOCC1 [Example 142, N-(4-hydroxyphenyl)-1,2-dimethyl-N-[5-methyl-1-(oxan-4-yl)pyrazol-4-yl]-5-(7-{[(3R)-3-methyl-3,4-dihydro-1H-isoquinolin-2-yl]carbonyl}-2-(2-{4-[2-(morpholin-4-yl)ethoxy]phenyl}acetyl)-3,4-dihydro-1H-isoquinolin-6-yl)pyrrole-3-carboxamide] | 1.3 | 10.0 | 0.13 | 8.9744 | 1.4 | 0.156 | 0.31 | 8.1 | 62.3
9 | COCCn1cc(N(C(=O)c2cc(-c3cc4c(cc3C(=O)N3Cc5ccccc5C[C@H]3C)CN(C(=O)Cc3ccc(OCCN5CCOCC5)cc3)CC4)n(C)c2C)c2ccc(O)cc2)cn1 [Example 143, N-(4-hydroxyphenyl)-N-[1-(2-methoxyethyl)pyrazol-4-yl]-1,2-dimethyl-5-(7-{[(3R)-3-methyl-3,4-dihydro-1H-isoquinolin-2-yl]carbonyl}-2-(2-{4-[2-(morpholin-4-yl)ethoxy]phenyl}acetyl)-3,4-dihydro-1H-isoquinolin-6-yl)pyrrole-3-carboxamide] | 0.4 | 12.2 | 0.04 | 12.604 | 0.605 | 0.048 | 0.1 | 3 | 83.3
10 | Cc1c(C(=O)N(c2ccc(O)cc2)c2cnn(CC(C)C)c2)cc(-c2cc3c(cc2C(=O)N2Cc4ccccc4C[C@H]2C)CN(C(=O)Cc2ccc(OCCN4CCOCC4)cc2)CC3)n1C [Example 144, N-(4-hydroxyphenyl)-1,2-dimethyl-5-(7-{[(3R)-3-methyl-3,4-dihydro-1H-isoquinolin-2-yl]carbonyl}-2-(2-{4-[2-(morpholin-4-yl)ethoxy]phenyl}acetyl)-3,4-dihydro-1H-isoquinolin-6-yl)-N-[1-(2-methylpropyl)pyrazol-4-yl]pyrrole-3-carboxamide] | 1.1 | 11.0 | 0.1 | 12.531 | 0.307 | 0.0245 | 0.18 | 7.7 | 77.0
